Reference: patent US10220026B2, “Micelle containing epirubicin-complexed block copolymer and anti-cancer agent, and pharmaceutical composition containing said micelle applicable to treatment of cancer, resistant cancer or metastatic cancer” (priority 2014, dated 2019)

How the values were obtained:
[1] = Incorporation of compounds in micelles of epirubicin-conjugated block copolymer (HPLC, DLS); assay type: physicochemical; details: for detection of the compound in micelles formed by epirubicin-conjugated block copolymer: micelles produced by the method of Example 1
Description: The mixed solution was applied to a rotary evaporator (N-1200AV (Elyra)) followed by evaporating the methanol. After having evaporated the methanol, HEPES buffer (10 mM, pH 7.4, 50 ml) was added to the flask followed by carrying out sonication for 30 minutes (Bioruptor, Cosmo Bio Co., Ltd., Japan). Subsequently, the solution was passed through a polyethersulfone (PES) filter (0.22 μm) (Millipore Corp.). The solution was further purified by subjecting to five rounds of ultrafiltration (molecular weight cutoff: 30,000 Da) (Centricon Plus-20, Millipore Corp.) for 15 minutes (while adding 5 ml of HEPES buffer (10 mM, pH 7.4) for each round of ultrafiltration) followed by concentrating to 15 ml. Finally, the solution was passed through a PES filter (0.22 μm).

[2] = tested on: Epirubicin-resistant breast cancer cells (MCF-7); test: Elimination of epirubicin and eFluxx-ID-GFP by resistant strain (confocal microscopy), breast cancer; assay type: cell-based, human; details: epirubicin-resistant strain; concentrations of Table 6
Description: (§1) Epirubicin-resistant breast cancer cells (MCF-7) and cisplatin-resistant lung cancer cells (H460) were respectively disseminated in each of the wells of an 8-well Tek chambered cover glass (Thermo Fisher Scientific K.K.) at 1×10^4 cells/well followed by culturing overnight. The medium was then replaced with 200 μl of RPMI1640 (phenol red-free) containing 0.1 μg/ml of Hoechst 33342 and 10% FBS.
(§2) 200 μl of eFluxx-ID-GFP solution were added 1 hour after addition of drug. The medium was replaced with RPMI1640 medium containing 10% FBS 30 minutes after addition followed by observation with an LSM780 confocal microscope and taking photographs thereof (FIGS. 12B and 13B). Cells subjected to the procedure prior to acquiring resistance were used as a control and epirubicin was added for the drug. In this experiment, fluorescence-labeled epirubicin (manufacturer) was used for the epirubicin.

[3] = tested on: cisplatin-resistant lung cancer cells (H460); test: Elimination of epirubicin and eFluxx-ID-GFP by resistant strain (confocal microscopy), lung cancer; assay type: cell-based, human; details: concentrations of Table 6
Description: as §1, §2

[4] = tested on: MSTO-211H mesothelioma cells; test: Aldefluor assay (FACS) on cancer stem cells in mesothelioma; assay type: cell-based, human; details: 1 μM cisplatin, 0.01 μM pemetrexed, 0.001 μM staurosporine, 0.01 μM UCN-1; 72 hours or 24 hours
[5] = tested on: A549 cells highly expressing MRP; test: eFluxx-ID Green Multidrug Resistance Assay (drug elimination activity, MAF), MRP; assay type: cell-based; details: 30 μM
Description: (§3) More specifically, after detaching each of the cultured cells by incubating in trypsin-EDTA solution, the cells were washed with medium to obtain cell suspensions having a concentration of 1×10^4 cells/ml. […] 125 μl of eFluxx-ID-GFP solution were added 1 hour after addition of drug at the concentration directed in the kit. Following addition, the cell suspensions were incubated for 30 minutes at 37° C. followed by the addition of DAPI at a final concentration of 0.5 μg/ml and analyzing with a flow cytometer (BD LSR II, BD Biosciences). MAF values shown in the figures refer to the multidrug resistance activity factor (MAF) calculated from the mean fluorescence intensity of flow cytometry, and a high value for MAF indicates a greater inhibitory effect on ABC transporters. The calculation formulas were as indicated below: MAFMDR-1=100×(FMDR-1−F0)/FMDR-1 MAFMRP=100×(FMRP−F0)/FMRP NAFBCRP=100×(FBCRP−F0)/FBCRP [Equation 4] (wherein, F represents the mean flow cytometry value during addition of inhibitor, and F0 represents the mean flow cytometry value when inhibitor is not added).

[6] = tested on: epirubicin-resistant mesothelioma cells (MSTO-211H EPI-R); test: eFluxx-ID Green Multidrug Resistance Assay (drug elimination activity, MAF), mesothelioma; assay type: cell-based, human; details: 30 μM
Description: as §3

[7] = tested on: Hela cells highly expressing BCRP; test: eFluxx-ID Green Multidrug Resistance Assay (drug elimination activity, MAF), BCRP; assay type: cell-based; details: 30 μM
Description: as §3

[8] = tested on: Mesothelioma cell line MSTO-211H cells; test: Effect of micelle incorporation during addition of hAGP, Cell Counting Kit-8 cell survival; assay type: cell-based, human; details: hAGP 0.5 mg/ml; STS 0.02 μg/ml, epirubicin 0.1 μg/ml
[9] = tested on: epirubicin-resistant breast cancer cells (MCF-7 EPI-R); test: eFluxx-ID Green Multidrug Resistance Assay (drug elimination activity, MAF), breast cancer; assay type: cell-based, human; details: 30 μM
Description: as §3

[10] = tested on: cisplatin-resistant lung cancer cells (H460 Cis-R); test: eFluxx-ID Green Multidrug Resistance Assay (drug elimination activity, MAF), lung cancer; assay type: cell-based, human; details: 30 μM
Description: as §3

[11] = tested on: cisplatin-resistant human lung cancer H460-luc cells; test: In vivo anti-cancer activity in orthotopic lung cancer model (survival); details: female nude mice, intravenous, epirubicin equivalent 6 mg/kg, Days 4, 11, 18, 25, 32
Description: Luciferase-expressing lung cancer H460-luc cells (JCRB) were cultured for 3 months in medium containing 1 μg/ml of cisplatin to acquire a cisplatin-resistant strain. 2×10^6 cells of the cisplatin-resistant strain H460-luc (containing 10% Matrigel (Becton Dickinson) were implanted into the left lower lobe of the lungs of female nude mice in accordance with the method described in Fushiki, et al., Cancer Sci., 2009 August, 100(8). Four days after implant, the drugs indicated in the following table were diluted to their prescribed dosages with physiological saline for injection (Otsuka Pharmaceutical Co., Ltd.) and administered into the caudal vein (on Days 4, 11, 18, 25 and 32).
HEPES solution was administered instead of a drug for use as a negative control. […] D-luciferin (Summit Pharmaceuticals International Corp.) was administered intraperitoneally and luminescence intensity of the luciferase was measured twice a week using an IVIS Imaging System (Summit Pharmaceuticals International Corp.) (FIG. 8A). Survival curves were verified according to the Kaplan-Meier method using Prism software and the presence of significant differences was tested using the log-rank test.

[12] = tested on: epirubicin-resistant human mesothelioma cells (MSTO-211H-luc); test: In vivo anti-cancer activity in orthotopic mesothelioma model (survival); details: female nude mice, intravenous, epirubicin equivalent 6 mg/kg, Days 5-63
Description: Human mesothelioma MSTO-211H was transfected with luciferase based on the method described in Mol. Ther., 2012 April, 20(4), 769-777 to obtain a luciferase-expressing strain (MSTO-211H-luc). MSTO-211H-luc cells were cultured for 3 months in medium containing 0.2 μg/ml of epirubicin to produce epirubicin-resistant human mesothelioma cells (MSTO-211H-luc). 1×10^6 of the epirubicin-resistant MSTO-211H-luc cells were administered into the thoracic cavity of female nude mice to produce an orthotopic implant model. Five days after administration, drugs at the dosages shown in the following table were diluted with physiological saline for injection (Otsuka Pharmaceutical Co., Ltd.) and administered into the caudal vein (on Days 5, 9, 13, 23, 33, 43, 53 and 63).
HEPES solution was administered instead of a drug for use as a negative control. […] D-luciferin (Summit Pharmaceuticals International Corp.) was administered intraperitoneally, and body weights of the mice were measured simultaneous to measuring luminescence intensity of the luciferase twice a week using an IVIS Imaging System (Summit Pharmaceuticals International Corp.) (FIGS. 6A to 6C). […] Significant differences as determined with a log-rank test were observed between the negative control and Epi (P=0.016), between Epi and Epi Micelle (P=0.0001) and between Epi Micelle and STS+Epi Micelle (P=0.0012).

[13] = tested on: mouse kidney cancer-derived cells (Renca); test: In vivo anti-cancer activity in orthotopic kidney cancer model (survival, lung metastasis, CD105); details: Balb/c mice, intravenous, epirubicin equivalent 6 mg/kg, Days 4, 11, 18

For `COC(=O)[C@H]1[C@H]2C[C@@H]3c4[nH]c5cc(OC)ccc5c4CCN3C[C@H]2C[C@@H](OC(=O)c2cc(OC)c(OC)c(OC)c2)[C@@H]1OC` [reserpine], the “detection of the compound in micelles formed by epirubicin-conjugated block copolymer” value (“detection of the compound” for short) [1] was “able to be detected in the micelles”.

In the case of `CO[C@@H]1[C@H](N(C)C(=O)c2ccccc2)C[C@H]2O[C@]1(C)n1c3ccccc3c3c4c(c5c6ccccc6n2c5c31)C(=O)NC4` [PKC412], the “detection of the compound” value [1] is reported as “able to be detected in the micelles”.

For `COc1ccc(CCN(C)CCCC(C#N)(c2ccc(OC)c(OC)c2)C(C)C)cc1OC` (stereo not drawn) [verapamil], the “elimination of epirubicin and eFluxx-ID outside the cells” value [2] was “localized within the cells” and the “elimination of epirubicin and eFluxx-ID outside the cells” value [3] was “localized within the cells”.

For `N.N.[Cl][Pt][Cl]` [cisplatin], the “Aldefluor-positive cells (cancer stem cells)” value (from here on “Aldefluor-positive cells”) [4] was “increased”.

In the case of `CN[C@@H]1C[C@H]2O[C@@](C)([C@@H]1OC)n1c3ccccc3c3c4c(c5c6ccccc6n2c5c31)C(=O)NC4` [staurosporine], the “elimination of drug (eFluxx-ID) from cells” value (“elimination of drug” below) [5] is reported as “prevented elimination”, the “elimination of drug” value [6] is reported as “prevented elimination” and the “elimination of drug” value [7] is reported as “prevented elimination”. For the same compound, the “effect of addition of human α-acid glycoprotein (hAGP) on cell survival rate” value [8] was “significant increase in cell survival rate”, the “dispersibility of staurosporine-incorporating epirubicin micelle” value ([1]; epirubicin:staurosporine weight ratio of 1:1) was “dispersibility increased” and the “polydispersivity of staurosporine-incorporating epirubicin micelle” value ([1]; epirubicin:staurosporine weight ratio of 1:2, unsuitable as incorporating micelle) was “polydispersivity increased”. For the same compound, the “incorporation of staurosporine in the epirubicin micelle” value ([1]; epirubicin:staurosporine weight ratio of 5:1) was “complete incorporation”, the “detection of the compound” value [1] was “able to be detected in the micelles” and the “Aldefluor-positive cells” value [4] was “decreased”. For the same compound, the “elimination of drug” value [9] was “prevented elimination” and the “elimination of drug” value [10] was “prevented elimination”.

For `CS(=O)(=O)c1ccc(C(=O)Nc2ccc(Cl)c(-c3ccccn3)c2)c(Cl)c1` [vismodegib], the “detection of the compound” value [1] was “unable to be detected in the micelles”.

For `COc1cccc2c1C(=O)c1c(O)c3c(c(O)c1C2=O)C[C@@](O)(C(=O)CO)C[C@@H]3O[C@H]1C[C@H](N)[C@@H](O)[C@H](C)O1` [Epi, epirubicin], the “survival, significant difference versus negative control (log-rank test P)” value [11] was “not observed”, the “survival, log-rank test P versus negative control” value [12] was 0.016 and the “elimination of epirubicin and eFluxx-ID outside the cells” value [2] was “eliminated outside cells”. For the same compound, the “survival, log-rank test P versus negative control” value [13] was 0.0001 and the “elimination of epirubicin and eFluxx-ID outside the cells” value [3] was “eliminated outside cells”.

For `Nc1nc2[nH]cc(CCc3ccc(C(=O)N[C@@H](CCC(=O)O)C(=O)O)cc3)c2c(=O)[nH]1` [pemetrexed], the “Aldefluor-positive cells” value [4] was “increased”.

With `Cn1cc(C2=C(c3cn(C4CCN(Cc5ccccn5)CC4)c4ccccc34)C(=O)NC2=O)c2ccccc21` [enzastaurin] the “detection of the compound” value [1] was “unable to be detected in the micelles”.

In the case of `C[C@]12O[C@H](C[C@]1(O)CO)n1c3ccccc3c3c4c(c5c6ccccc6n2c5c31)CNC4=O` [CEP701/lestaurtinib, lestaurtinib], the “detection of the compound” value [1] is reported as “able to be detected in the micelles”.

With `CN[C@@H]1C[C@H]2O[C@@](C)([C@@H]1OC)n1c3ccccc3c3c4c(c5c6ccccc6n2c5c31)C(=O)N[C@H]4O` [UCN-01, 7-hydroxystaurosporine] the “detection of the compound” value [1] was “able to be detected in the micelles” and the “Aldefluor-positive cells” value [4] was “decreased”.
